Laboratory results published in patent US20060058286A1, “Methods of treating HIV infection” (priority 2004, published 2006).

What was measured:
[1] = tested on: HIV-1 NL4-3; test: microbe, parasite or virus in culture
[2] = tested on: HIV-1 NL4-3; test: Two-drug combination study with Compound 1 (combination indices); type: cell-based; conditions: for Combination Indices at 50% HIV Inhibition (Confidence Interval) / Combination Indices at 75% HIV Inhibition (Confidence Interval) / Combination Indices at 90% HIV Inhibition (Confidence Interval): 95% CI in parentheses; for Overall Result: overall antiviral effect of the two-drug combination with Compound 1, all ratios and effective levels
[3] = combination with Compound 1, EC50 ratio 1:1 (Compound 1:comparator)
[4] = combination with Compound 1, EC50 ratio 1:2.5 (Compound 1:comparator)
[5] = combination with Compound 1, EC50 ratio 2.5:1 (Compound 1:comparator)

Row | SMILES | EC50 ([1]; Human immunodeficiency virus 1, NL43, MT2, 120 h) [nM] | combination effect at the 13:1 and 82.5:1 molar ratios ([2]; combination with Compound 1) | combination effect at the 33:1 molar ratio ([2]; combination with Compound 1) | Combination Indices at 50% HIV Inhibition (Confidence Interval) [2, 3] | Combination Indices at 75% HIV Inhibition (Confidence Interval) [2, 3] | Combination Indices at 90% HIV Inhibition (Confidence Interval) [2, 3] | Combination Indices at 50% HIV Inhibition (Confidence Interval) [2, 4] | Combination Indices at 75% HIV Inhibition (Confidence Interval) [2, 4] | Combination Indices at 90% HIV Inhibition (Confidence Interval) [2, 4] | Combination Indices at 50% HIV Inhibition (Confidence Interval) [2, 5] | Combination Indices at 75% HIV Inhibition (Confidence Interval) [2, 5] | Combination Indices at 90% HIV Inhibition (Confidence Interval) [2, 5] | Overall Result [2] | EC50 ([1]; MT-2 cells infected with HIV-1 NL4-3, MOI 0.001, 5 days, single drug) [nM]
1 | COc1ncc(OC)c2c(C(=O)C(=O)N3CCN(C(=O)c4ccccc4)CC3)c[nH]c12 [Compound 3] | 1 | moderate synergy | additivity | 0.92 (0.77, 1.06) | 0.90 (0.70, 1.10) | 0.89 (0.58, 1.21) | 0.71 (0.60, 0.82) | 0.66 (0.51, 0.80) | 0.61 (0.40, 0.82) | 0.41 (0.36, 0.47) | 0.41 (0.33, 0.48) | 0.40 (0.28, 0.52) | synergistic to additive | 
2 | C[C@H](Cn1cnc2c(N)ncnc21)OCP(=O)(O)O [Tenofovir, tenofovir] |  |  |  | 1.30 (1.00, 1.61) | 1.02 (0.69, 1.35) | 0.80 (0.39, 1.21) | 0.93 (0.63, 1.23) | 0.99 (0.54, 1.43) | 1.06 (0.31, 1.80) | 1.03 (0.65, 1.40) | 0.84 (0.42, 1.27) | 0.70 (0.14, 1.25) | Additive | 3
